Data from PubChem BioAssay AID1159558 (GlaxoSmithKline (GSK), 2015).
pIC50: −log10 of the molar value. Activity calls are given as the source filed them.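 Rule for the calls: active = IC50 against T. cruzi CYP51 below a set limit; inactive = the rest.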

Molecular target: Sterol 14-alpha demethylase (Trypanosoma cruzi (strain CL Brener)) (UniProt Q7Z1V1)
Test: TcCYP51 inhibitors, dose response, mechanism study for T. cruzi antiparasitic project, biochemical, recombinant enzyme (AID 1159558);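 note: enzyme in bacterial membranes with Anopheles gambiae CYP reductase and cytochrome b5 partners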
Conditions: recombinant T. cruzi CYP51, BOMCC fluorescence

Chain of Sterol 14-alpha demethylase (Trypanosoma cruzi (strain CL Brener)) (Q7Z1V1 whole entry, looked up): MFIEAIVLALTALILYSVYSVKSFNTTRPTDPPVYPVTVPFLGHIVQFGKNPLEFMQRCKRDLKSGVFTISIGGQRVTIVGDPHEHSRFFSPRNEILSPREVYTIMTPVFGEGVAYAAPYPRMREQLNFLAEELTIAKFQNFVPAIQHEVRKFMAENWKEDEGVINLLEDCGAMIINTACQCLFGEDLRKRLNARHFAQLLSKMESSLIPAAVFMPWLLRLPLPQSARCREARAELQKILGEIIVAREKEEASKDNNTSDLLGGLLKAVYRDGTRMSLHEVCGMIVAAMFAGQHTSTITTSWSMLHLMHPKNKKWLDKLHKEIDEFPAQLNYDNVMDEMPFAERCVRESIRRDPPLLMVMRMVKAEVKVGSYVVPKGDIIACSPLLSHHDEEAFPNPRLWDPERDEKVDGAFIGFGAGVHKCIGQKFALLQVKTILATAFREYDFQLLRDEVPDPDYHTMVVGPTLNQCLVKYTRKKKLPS

Row | Structure (SMILES) | pIC50 | IC50
1 | CCC1Oc2cc(S(=O)(=O)N(C)CC(=O)N3CCc4ccccc4C3)c(C)cc2NC1=O (configuration not stated) | 6.10 | –
2 | Cc1ccccc1CNc1cc(C2CC2)nc(-c2nccn2C)n1 | 4.80 | –
3 | O=C(Nc1nc(-c2ccccn2)cs1)C1CCc2ccccc2C1 (configuration not stated) | 4.60 | –
4 | CC(C)(C)CC(=O)NCCc1csc(-c2ccc(F)cc2)n1 | 4.70 | –
5 | CN(C)S(=O)(=O)c1cccc(CSc2nnc(-c3ccc4c(c3)OCO4)o2)c1 | 4.89 | –
6 | CCc1ccccc1[C@@H](C)NC(=O)c1cnc2c(cnn2CC)c1NC1CCN(C(N)=O)CC1 | 4.10 | –
7 | CCOc1cnn(C)c(=O)c1Nc1ccc(C(=O)NCc2ccc(F)cc2)cc1 | 5.40 | –
8 | COc1ccc(CN2C(=O)C(O)(CC(=O)c3ccncc3)c3cc(Br)ccc32)cc1OC (configuration not stated) | 6.30 | –
9 | Cc1ccc(S(=O)(=O)Nc2ccc(CN3CCN(C(=O)c4cccc(C)c4)CC3)cc2)cc1 | 4.10 | –
10 | CCOC(=O)c1noc(N)c1-c1ccccc1 | – | > 100 µM (inactive)
11 | O=C(NCC1CCCCC1)c1cnns1 | – | > 100 µM (inactive)
12 | COc1cc(C(C)C)c(S(C)(=O)=O)cc1C(=O)N1CCN(c2ccccc2Cl)CC1 | – | > 100 µM (inactive)
13 | Fc1ccc(OC2CC(NCc3cccc4cn[nH]c34)C2)cc1C(F)(F)F (configuration not stated) | 6.89 | –
14 | COc1ccc(OC)c2c(=O)c(Cc3ccccc3)c(C)[nH]c12 | – | > 100 µM (inactive)
15 | Clc1cc(Br)ccc1OCCCCn1ccnc1 | 7.20 | –
16 | N#Cc1ccc(S(=O)(=O)N2CCN(Cc3cccc(-c4ccncc4)c3)CC2)cc1 | 7.10 | –
17 | CCOc1ccc(NC(=O)c2ccc(NC(=O)NC3CCCCC3)cc2)cc1 | – | > 100 µM (inactive)
18 | CNS(=O)(=O)c1ccccc1Nc1nc(Nc2cc(C)nn2C)ncc1Cl | 4.60 | –
19 | CCc1nn(-c2ncc(F)c(NC(C)C)n2)c(N)c1C1CCCCC1 | – | > 100 µM (inactive)
20 | CCCC(=O)N(Cc1ccccn1)c1nc2ccccc2s1 | 7.30 | –
21 | O=C1CN(Cc2ccco2)C2CS(=O)(=O)CC2N1c1ccc(Cl)cc1 (configuration not stated) | – | > 100 µM (inactive)
22 | COc1ccc([N+](=O)[O-])cc1NC(=O)Nc1cccc(Cl)c1 | – | > 100 µM (inactive)
23 | CNc1cc(Cn2c(C(=O)c3cc(C)cc(Cl)c3)c(C(C)C)c(=O)[nH]c2=O)ccn1 | 7.49 | –
24 | O=C1CN(C2CCCc3c(OCc4ccncc4)cccc32)C(=O)N1C1CCCCC1 (configuration not stated) | 7.70 | –
25 | CC(C(=O)Nc1ccc(Br)cc1)N1CCN(c2ccc([N+](=O)[O-])cc2)CC1 (configuration not stated) | 4.40 | –
26 | O=c1ccc2ccc(F)c3c2n1C[C@H]3CN1CCC(NCc2cc3ccccc3o2)CC1 | 4.49 | –

Row | Structure (SMILES) | pIC50 | IC50
27 | O=C(Nc1ccc(-c2nc3ccccc3c(=O)[nH]2)cc1)c1cccs1 | – | > 100 µM (inactive)
28 | COc1ccnc2[nH]cc(-c3cc(C(=O)N[C@H](CO)c4ccccc4)co3)c12 | 6.10 | –
29 | COCc1cc(Nc2ccc(Cl)cc2)nc(-c2ccccn2)n1 | – | > 100 µM (inactive)
30 | CCN(CC)S(=O)(=O)c1ccc(OC)c(NC(=O)c2ccc([N+](=O)[O-])s2)c1 | 4.49 | –
31 | Cc1nc(C(=O)Nc2ccc3c(c2)OCO3)nn1-c1ccc(Cl)cc1 | 4.49 | –
32 | O=C(CN(Cc1ccccn1)Cc1ccccn1)NCc1ccc(-c2csnn2)cc1 | 4.40 | –
33 | CCS(=O)(=O)c1cccc(C(=O)Nc2nc(-c3ccccn3)cs2)c1 | 4.20 | –
34 | Oc1c(-c2n[nH]c(CCc3ccccc3)n2)ncc2cccnc12 | – | > 100 µM (inactive)
35 | COc1ccc(NS(=O)(=O)c2cccc(NC(=O)c3cc(F)cc(F)c3)c2)cc1 | – | > 100 µM (inactive)
36 | Cc1ccc2sc(NC(=O)Cn3cnc([N+](=O)[O-])n3)nc2c1 | – | > 100 µM (inactive)
37 | CN(Cc1nc2ccccc2s1)C(=O)C=Cc1cc2ccccc2o1 | 6.80 | –
38 | Cc1c(Nc2cc(C3CC3)[nH]n2)ccc(C#N)c1Cl | 4.70 | –
39 | C[C@@H](Oc1cc(-n2cnc3ccc(C(O)CO)cc32)sc1C(N)=O)c1ccccc1C(F)(F)F (some centres not stated) | 4.60 | –
40 | CCOc1ccc(Nc2ccc(S(=O)(=O)N3CCN(C)CC3)cc2[N+](=O)[O-])cc1OCC | 4.49 | –
41 | O=C(NCCc1ccccc1Cl)c1cccn1-c1cccnc1 | 7.10 | –
42 | COc1cccc(CCNC(=O)C(c2cn[nH]c2)N2CCN(c3ccc(Cl)cc3)CC2)c1 (configuration not stated) | 7.20 | –
43 | O=c1[nH]ccc2ccc(-c3ccncc3)cc12 | 7.80 | –
44 | N#CN1CC[C@@H](NC(=O)Nc2ccccc2Oc2ccccc2)C1 | – | > 100 µM (inactive)
45 | COc1cc(NC(=O)Nc2cccc(CNC(=O)OC3CCCCC3)c2)ccc1-c1cnco1 | 4.60 | –
46 | Cc1nn(-c2ccccc2)nc1CNC(=O)CN(Cc1ccccn1)Cc1ccccn1 | 4.60 | –
47 | Cc1ccc(CNC2CCN(C[C@@H]3Cn4c(=O)ccc5ccc(=O)n3c54)CC2)cc1F | – | > 100 µM (inactive)
48 | COc1ccc(-c2nc3ncccc3o2)cc1NC(=O)c1cccs1 | – | > 100 µM (inactive)
49 | COc1ccc(C2CC(c3ccccc3Cl)=NN2C(=O)CNC(=O)C2CCCC2)cc1 (configuration not stated) | 4.20 | –
50 | c1ccc(-c2nc(NC3CCCCC3)cc(C3CC3)n2)nc1 | – | > 100 µM (inactive)
51 | Cc1cc(C#N)c([N+](=O)[O-])cc1Br | 5.10 | –
52 | O=C(NCC(c1cccs1)N1CCOCC1)c1ccc([N+](=O)[O-])o1 (configuration not stated) | 5.00 | –

Row | Structure (SMILES) | pIC50 | IC50
53 | Cc1ccc(NC(C)C(=O)Nc2ccc(C#N)cc2)cc1S(=O)(=O)N1CCCCC1 (configuration not stated) | 4.80 | –
54 | CNS(=O)(=O)c1ccccc1Nc1nc(Nc2ccnn2C)ncc1Cl | 4.49 | –
55 | CC(C)S(=O)(=O)c1ccc(-c2cnc(N)c3cc(-c4ccnc(N)n4)ccc23)cc1 | 4.80 | –
56 | CCc1ccc2nc(NC(=O)c3cc(N4CCOCC4)ccn3)sc2c1 | – | > 100 µM (inactive)
57 | CCCCCNC(=O)c1c[nH]c2ccc(S(=O)(=O)N(C)c3ccc(OCC)cc3)cc2c1=O | 5.80 | –
58 | COc1ccc(Nc2nc(-c3ccccn3)cc(N3CCCC(O)C3)n2)cc1 (configuration not stated) | 4.30 | –
59 | CC(=O)Nc1ccc(-c2ccnc(Nc3cccc(C#N)c3)n2)cc1 | 4.60 | –
60 | O=C(N[C@H](CO)c1ccccc1)c1ccc(-c2c[nH]c3nccc(C(F)(F)F)c23)s1 | 5.20 | –
61 | Cc1nc2c(-c3n[nH]c(-c4ccccc4N)n3)cccn2c1C | 5.49 | –
62 | O=C(NC1CCN(C2Cc3ccc(NS(=O)(=O)c4cc(F)cc(F)c4)cc3C2)CC1)C1CC1 (configuration not stated) | 4.30 | –
63 | O=C(Nc1nc(-c2ccccn2)cs1)c1ccccc1-n1cnnn1 | – | > 100 µM (inactive)
64 | COc1ccc(-c2csc(NC(=O)c3ccc([N+](=O)[O-])s3)n2)cc1OC | – | > 100 µM (inactive)
65 | Cc1[nH]c2ccccc2c(=O)c1Cc1c(C)[nH]c2ccccc2c1=O | – | > 100 µM (inactive)
66 | COc1cc2c(cc1OC)[C@H]1[C@@H](C)c3ccc(OC)c(OC)c3CN1CC2 | 4.10 | –
67 | O=S(=O)(NCC(c1cccnc1)N1CCN(c2ccc(F)cc2)CC1)c1cccs1 (configuration not stated) | 7.40 | –
68 | NC(=O)c1cc(F)ccc1Nc1nc(NC2CCC(O)CC2)ncc1Cl (configuration not stated) | 4.49 | –
69 | O=C(CSc1ccc(-c2ccccn2)nn1)Nc1ccc(Cl)cc1 | – | > 100 µM (inactive)
70 | O=C(Nc1nc(-c2ccc(S(=O)(=O)N3CCOCC3)cc2)cs1)c1ccc([N+](=O)[O-])cc1 | – | > 100 µM (inactive)
71 | O=C(O)[C@H]1C[C@@H]1c1ccc(-c2ccc(CN(CCc3ccccn3)C(=O)C3CCC3)cc2)cc1 | 4.70 | –
72 | CS(=O)(=O)c1ccc(Nc2nccc(-c3cnn4ncccc34)n2)cc1 | 4.80 | –
73 | Cn1c(CN2CCN(c3ncc(C(F)(F)F)cc3Cl)CC2)nc2ccncc21 | 7.10 | –
74 | Cc1ccccc1NS(=O)(=O)c1ccc2[nH]cc(C(=O)NC3CCCCC3)c(=O)c2c1 | 5.00 | –
75 | O=S(=O)(NCC(c1cccnc1)N1CCN(c2ccccc2F)CC1)c1ccc(F)cc1 (configuration not stated) | 7.10 | –
76 | O=C(CC1(O)C(=O)N(Cc2cccs2)c2ccc(Br)cc21)c1cccnc1 (configuration not stated) | 4.89 | –
77 | Cc1cc(C)c(C#N)c(SCC(=O)c2ccc3c(c2)OCO3)n1 | – | > 100 µM (inactive)
78 | Cc1[nH]nc2c1C(c1ccc(OCc3ccccc3F)cc1)SCC(=O)N2 (configuration not stated) | – | > 100 µM (inactive)

Row | Structure (SMILES) | pIC50 | IC50
79 | CN(CC1CCCO1)S(=O)(=O)c1ccc(C(=O)Nc2nc(-c3ccccn3)cs2)cc1 (configuration not stated) | 5.10 | –
80 | Cc1nc(C(=O)Nc2ccc3c(c2)OCO3)nn1-c1ccc(F)cc1 | 4.40 | –
81 | Cc1cc2nc(N3CC[C@H]3C(N)=O)nc(Nc3cc(C4CC4)[nH]n3)c2s1 | – | > 100 µM (inactive)
82 | COc1cc(Cl)c(C)cc1NC(=O)c1ccc([N+](=O)[O-])s1 | 4.80 | –
83 | O=C(CC1(O)C(=O)N(Cc2ccccc2)c2ccc(Br)cc21)c1cccnc1 (configuration not stated) | 5.40 | –
84 | Nc1nc(-c2ccccn2)nc(-n2nc(-c3cccc(C(F)(F)F)c3)cc2N)n1 | – | > 100 µM (inactive)
85 | COc1ccc(C(C)N(C)c2ncc3c(N)nc(N)nc3n2)cc1F (configuration not stated) | – | > 100 µM (inactive)
86 | CN(Cc1nc2c(C(=O)N3CCN(Cc4ccccc4)CC3)cccc2[nH]1)C1CCCc2cccnc21 (configuration not stated) | 4.40 | –
87 | CC(=O)Nc1ccc(CN2CCC(N3CC(c4ccccc4)(c4ccccc4)OCC3=O)CC2)cc1 | – | > 100 µM (inactive)
88 | O=C(Nc1nccs1)c1ccccc1Cn1cc([N+](=O)[O-])cn1 | – | > 100 µM (inactive)
89 | Cc1cccc(NS(=O)(=O)c2cnc3sc(C)cn3c2=O)c1 | – | > 100 µM (inactive)
90 | CC(C)(C)c1cc(NC2CC2)nc(-c2ccccn2)n1 | – | > 100 µM (inactive)
91 | Cc1[nH]nc(C(F)(F)F)c1NC(=O)CCn1cc(Cl)c([N+](=O)[O-])n1 | – | > 100 µM (inactive)
92 | CNc1cncc(C2CCCN2C(=O)Cc2ccc3ccccc3c2)n1 (configuration not stated) | 7.00 | –
93 | c1ccc2[nH]c(-c3ccc(N4CCCC4)nc3)nc2c1 | – | > 100 µM (inactive)
94 | COc1ccc2ncc(=O)n(CCN3CC[C@H](NCc4ncc(Cl)c5[nH]ncc45)[C@H](O)C3)c2n1 | – | > 100 µM (inactive)
95 | Cc1nn(-c2nc3ccccc3[nH]2)c2c1C(c1ccc(O)cc1)CC(=O)N2 (configuration not stated) | 4.60 | –
96 | CC(=O)Nc1nc(-c2cc(C)ccc2C)c(C)s1 | – | > 100 µM (inactive)
97 | CS(=O)(=O)c1ccc(CC(=O)Nc2nc(-c3ccc(Cl)s3)cs2)cc1 | – | > 100 µM (inactive)
98 | O=C(N1CCc2ccccc2CC1)C1(C(=O)N2CCC(n3c(=O)[nH]c4ncccc43)CC2)CC1 | 6.49 | –
99 | O=C(NCCc1cccnc1)c1csc(-c2ccccc2)n1 | 7.20 | –
100 | CN(C)Cc1ccc(N2CCC(NS(=O)(=O)c3ccc(Cl)cc3)CC2)cc1 | – | > 100 µM (inactive)
101 | Nc1nonc1-c1nc2cncc(C(=O)N3CC[C@H](N)C3)c2n1CC1CC1 | 4.89 | –
102 | COc1ccc(C)cc1-c1csc(NC(=O)C(C)n2ccnc2)n1 (configuration not stated) | 7.40 | –
